Measured values from PubChem BioAssay AID330 (DTP/NCI, 2004).
Values joined by “and” are separate entries in the source; they are usually repeats but may differ in a detail not shown here. Equal values may be shown once. Inconclusive results and toxic doses are left out.

Test system: P388 leukemia ip, CD2F1 mice, survival T/C
Assay: NCI In Vivo Anticancer Drug Screen. Data for tumor model P388 Leukemia (intraperitoneal) in CD2F1 (CDF1) mice
Conditions: endpoint: median survival time, higher = longer survival
In short: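 Mice carrying the transplanted tumor received test compound or vehicle. Survival was recorded in each group, and the value is the treated-group measurement divided by that of the vehicle-treated control group.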

For COc1cc2c[n+](C)c3c4cc5c(cc4ccc3c2cc1OC)OCO5, the T/C (dose: 0.5 mg/kg/injection, schedule: Q01DX005 (ip), vehicle: saline) was 106 % of control, the T/C (dose: 1.0 mg/kg/injection, schedule: Q01DX005 (ip), vehicle: saline) was 118 % of control and the T/C (dose: 1.25 mg/kg/injection, schedule: Q01DX009 (ip), vehicle: DMSO) was 124 % of control. For the same compound, the T/C (dose: 2.0 mg/kg/injection, schedule: Q01DX005 (ip), vehicle: saline) was 115 % of control, the T/C (dose: 2.0 mg/kg/injection, schedule: Q03HX008 (ip), vehicle: water) was 109 % of control and the T/C (dose: 2.0 mg/kg/injection, schedule: Q03HX016 (ip), vehicle: water) was 121 % of control. The T/C (dose: 2.0 mg/kg/injection, schedule: Q03HX024 (ip), vehicle: saline with Tween-80) was 150 % of control, the T/C (dose: 4.0 mg/kg/injection, schedule: Q01DX009 (ip), vehicle: saline) was 152 % of control and the T/C (dose: 4.0 mg/kg/injection, schedule: Q01DX009 (sc), vehicle: water) was 97 % of control. For the same compound, the T/C (dose: 4.0 mg/kg/injection, schedule: Q03HX008 (ip), vehicle: water) was 114 % of control, the T/C (dose: 4.0 mg/kg/injection, schedule: Q03HX016 (ip), vehicle: water) was 119 % of control and the T/C (dose: 5.0 mg/kg/injection, schedule: Q01DX009 (ip), vehicle: DMSO) was 153 % of control. The T/C (dose: 8.0 mg/kg/injection, schedule: Q01DX009 (ip), vehicle: saline with Tween-80) was 166 % of control, the T/C (dose: 8.0 mg/kg/injection, schedule: Q01DX009 (ip), vehicle: saline) was 152 % of control and the T/C (dose: 8.0 mg/kg/injection, schedule: Q01DX009 (oral), vehicle: water) was 102 % of control. For the same compound, the T/C (dose: 8.0 mg/kg/injection, schedule: Q01DX009 (sc), vehicle: saline with Tween-80) was 96 % of control, the T/C (dose: 8.0 mg/kg/injection, schedule: Q01DX009 (sc), vehicle: water) was 97 % of control and the T/C (dose: 8.0 mg/kg/injection, schedule: Q03HX008 (ip), vehicle: water) was 87 % of control. For the same compound, the T/C (dose: 8.0 mg/kg/injection, schedule: Q03HX016 (ip), vehicle: saline with Tween-80) was 153 % of control, the T/C (dose: 8.0 mg/kg/injection, schedule: Q03HX016 (ip), vehicle: water) was 92 % of control and the T/C (dose: 8.0 mg/kg/injection, schedule: Q03HX024 (ip), vehicle: saline with Tween-80) was 165 % of control. The T/C (dose: 8.0 mg/kg/injection, schedule: Q04DX003 (ip), vehicle: water) was 113 % of control, the T/C (dose: 10.0 mg/kg/injection, schedule: Q01DX009 (ip), vehicle: DMSO) was 153 % of control and 155 % of control and the T/C (dose: 16.0 mg/kg/injection, schedule: Q01DX001 (ip), vehicle: water) was 106 % of control. The T/C (dose: 16.0 mg/kg/injection, schedule: Q01DX001 (oral), vehicle: water) was 103 % of control, the T/C (dose: 16.0 mg/kg/injection, schedule: Q01DX001 (sc), vehicle: water) was 98 % of control and the T/C (dose: 16.0 mg/kg/injection, schedule: Q01DX009 (ip), vehicle: saline with Tween-80) was 157 % of control. For the same compound, the T/C (dose: 16.0 mg/kg/injection, schedule: Q01DX009 (ip), vehicle: saline) was 171 % of control, the T/C (dose: 16.0 mg/kg/injection, schedule: Q01DX009 (oral), vehicle: water) was 94 % of control and the T/C (dose: 16.0 mg/kg/injection, schedule: Q01DX009 (sc), vehicle: saline with Tween-80) was 97 % of control. The T/C (dose: 16.0 mg/kg/injection, schedule: Q03HX008 (ip), vehicle: saline with Tween-80) was 167 % of control, the T/C (dose: 16.0 mg/kg/injection, schedule: Q04DX003 (ip), vehicle: water) was 119 % of control and the T/C (dose: 16.0 mg/kg/injection, schedule: Q08DX002 (ip), vehicle: water) was 112 % of control. For the same compound, the T/C (dose: 20.0 mg/kg/injection, schedule: Q01DX009 (ip), vehicle: DMSO) was 155 % of control and 163 % of control and 190 % of control, the T/C (dose: 20.0 mg/kg/injection, schedule: Q01DX009 (ip), vehicle: saline) was 191 % of control and the T/C (dose: 25.0 mg/kg/injection, schedule: Q01DX009 (ip), vehicle: saline with Tween-80) was 114 % of control. The T/C (dose: 25.0 mg/kg/injection, schedule: Q01DX009 (ip), vehicle: water) was 100 % of control and 87 % of control, the T/C (dose: 32.0 mg/kg/injection, schedule: Q01DX001 (ip), vehicle: water) was 102 % of control and the T/C (dose: 32.0 mg/kg/injection, schedule: Q01DX001 (oral), vehicle: water) was 103 % of control. The T/C (dose: 32.0 mg/kg/injection, schedule: Q01DX001 (sc), vehicle: saline with Tween-80) was 100 % of control, the T/C (dose: 32.0 mg/kg/injection, schedule: Q01DX001 (sc), vehicle: water) was 101 % of control and the T/C (dose: 32.0 mg/kg/injection, schedule: Q01DX005 (ip), vehicle: saline) was 168 % of control. For the same compound, the T/C (dose: 32.0 mg/kg/injection, schedule: Q01DX009 (ip), vehicle: saline with Tween-80) was 100 % of control, the T/C (dose: 32.0 mg/kg/injection, schedule: Q01DX009 (ip), vehicle: water) was 185 % of control and the T/C (dose: 32.0 mg/kg/injection, schedule: Q01DX009 (oral), vehicle: saline with Tween-80) was 107 % of control. The T/C (dose: 32.0 mg/kg/injection, schedule: Q01DX009 (oral), vehicle: water) was 93 % of control, the T/C (dose: 32.0 mg/kg/injection, schedule: Q01DX009 (sc), vehicle: saline with Tween-80) was 92 % of control and the T/C (dose: 32.0 mg/kg/injection, schedule: Q03HX008 (ip), vehicle: saline with Tween-80) was 161 % of control. The T/C (dose: 32.0 mg/kg/injection, schedule: Q03HX016 (ip), vehicle: saline with Tween-80) was 100 % of control, the T/C (dose: 32.0 mg/kg/injection, schedule: Q04DX003 (ip), vehicle: other) was 154 % of control and the T/C (dose: 32.0 mg/kg/injection, schedule: Q04DX003 (ip), vehicle: water) was 119 % of control. The T/C (dose: 32.0 mg/kg/injection, schedule: Q08DX002 (ip), vehicle: water) was 113 % of control, the T/C (dose: 40.0 mg/kg/injection, schedule: Q01DX009 (ip), vehicle: saline) was 105 % of control and 96 % of control and the T/C (dose: 64.0 mg/kg/injection, schedule: Q01DX001 (ip), vehicle: water) was 117 % of control. The T/C (dose: 64.0 mg/kg/injection, schedule: Q01DX001 (oral), vehicle: water) was 102 % of control, the T/C (dose: 64.0 mg/kg/injection, schedule: Q01DX001 (sc), vehicle: saline with Tween-80) was 98 % of control and the T/C (dose: 64.0 mg/kg/injection, schedule: Q01DX001 (sc), vehicle: water) was 95 % of control. For the same compound, the T/C (dose: 64.0 mg/kg/injection, schedule: Q01DX009 (oral), vehicle: saline with Tween-80) was 100 % of control, the T/C (dose: 64.0 mg/kg/injection, schedule: Q01DX009 (oral), vehicle: water) was 101 % of control and the T/C (dose: 64.0 mg/kg/injection, schedule: Q01DX009 (sc), vehicle: saline with Tween-80) was 87 % of control. For the same compound, the T/C (dose: 64.0 mg/kg/injection, schedule: Q04DX003 (ip), vehicle: other) was 150 % of control and 181 % of control, the T/C (dose: 64.0 mg/kg/injection, schedule: Q04DX003 (ip), vehicle: saline with Tween-80) was 151 % of control and the T/C (dose: 64.0 mg/kg/injection, schedule: Q08DX002 (ip), vehicle: water) was 115 % of control. The T/C (dose: 100.0 mg/kg/injection, schedule: Q04DX002 (ip), vehicle: Klucel (hydroxypropylcellulose) (HPC)) was 154 % of control, the T/C (dose: 120.0 mg/kg/injection, schedule: Q04DX003 (ip), vehicle: distilled water + Tween-80) was 99 % of control and the T/C (dose: 128.0 mg/kg/injection, schedule: Q01DX001 (oral), vehicle: water) was 95 % of control. For the same compound, the T/C (dose: 128.0 mg/kg/injection, schedule: Q01DX001 (sc), vehicle: saline with Tween-80) was 97 % of control, the T/C (dose: 128.0 mg/kg/injection, schedule: Q01DX009 (oral), vehicle: saline with Tween-80) was 100 % of control and the T/C (dose: 128.0 mg/kg/injection, schedule: Q01DX009 (oral), vehicle: water) was 103 % of control. The T/C (dose: 128.0 mg/kg/injection, schedule: Q01DX009 (sc), vehicle: saline with Tween-80) was 88 % of control, the T/C (dose: 128.0 mg/kg/injection, schedule: Q04DX003 (ip), vehicle: other) was 107 % of control and the T/C (dose: 128.0 mg/kg/injection, schedule: Q04DX003 (ip), vehicle: saline with Tween-80) was 166 % of control. The T/C (dose: 128.0 mg/kg/injection, schedule: Q08DX002 (ip), vehicle: saline with Tween-80) was 155 % of control, the T/C (dose: 200.0 mg/kg/injection, schedule: Q04DX002 (ip), vehicle: Klucel (hydroxypropylcellulose) (HPC)) was 105 % of control and 122 % of control and the T/C (dose: 256.0 mg/kg/injection, schedule: Q01DX001 (ip), vehicle: saline with Tween-80) was 161 % of control. For the same compound, the T/C (dose: 256.0 mg/kg/injection, schedule: Q01DX001 (oral), vehicle: saline with Tween-80) was 104 % of control, the T/C (dose: 256.0 mg/kg/injection, schedule: Q01DX001 (sc), vehicle: saline with Tween-80) was 106 % of control and the T/C (dose: 256.0 mg/kg/injection, schedule: Q01DX009 (oral), vehicle: saline with Tween-80) was 100 % of control. For the same compound, the T/C (dose: 256.0 mg/kg/injection, schedule: Q08DX002 (ip), vehicle: saline with Tween-80) was 160 % of control, the T/C (dose: 400.0 mg/kg/injection, schedule: Q04DX002 (ip), vehicle: Klucel (hydroxypropylcellulose) (HPC)) was 87 % of control and the T/C (dose: 512.0 mg/kg/injection, schedule: Q01DX001 (oral), vehicle: saline with Tween-80) was 106 % of control. The T/C (dose: 512.0 mg/kg/injection, schedule: Q01DX001 (sc), vehicle: saline with Tween-80) was 97 % of control, the T/C (dose: 512.0 mg/kg/injection, schedule: Q01DX009 (oral), vehicle: saline with Tween-80) was 97 % of control and the T/C (dose: 1024.0 mg/kg/injection, schedule: Q01DX001 (oral), vehicle: saline with Tween-80) was 100 % of control. For the same compound, the T/C (dose: 2048.0 mg/kg/injection, schedule: Q01DX001 (oral), vehicle: saline with Tween-80) was 102 % of control.
